Measurements published in PubChem BioAssay AID1963440 (Molecular Pharmacology Branch, DTP, NCI, 2024).
Values belong to the molecule of their own block, whether it stands above or below them.

Test system: NCI-H1417 complex spheroids, growth % test/control
Assay: Anticancer human tumor NCI-H1417 cell line growth inhibition [Asc];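 also: spheroids exposed to compounds for 7 days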;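 as to viability, T/C: 100% = DMSO vehicle control wells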
Details: for IC50: curve of first compound; for viability, T/C: stronger effect = lower value
Procedure, shortened: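 Complex solid-tumor spheroids incorporating human endothelial and mesenchymal stem cells received single agents or combinations over half-log dilution ranges anchored to clinical Cmax.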

[1] = second compound 0.03 µM, first compound 0.0316 µM
[2] = second compound 0.03 µM, first compound 0.1 µM
[3] = second compound 0.0949 µM, first compound 0.0316 µM
[4] = second compound 0.0949 µM, first compound 0.1 µM
[5] = second compound 0.3 µM, first compound 0.0316 µM
[6] = second compound 0.3 µM, first compound 0.1 µM
[7] = second compound 0.949 µM, first compound 0.0316 µM
[8] = second compound 0.949 µM, first compound 0.1 µM
[9] = second compound 3 µM, first compound 0.0316 µM
[10] = second compound 3 µM, first compound 0.1 µM

- IC50 (second compound 0.03 µM): 2860 nM
- IC50 (second compound 0.0949 µM): 3970 nM
- IC50 (second compound 0.3 µM): 2690 nM
- IC50 (second compound 0.949 µM): 2960 nM
- IC50 (second compound 3 µM): 3210 nM
Compound: O=C(c1cc(Cc2n[nH]c(=O)c3ccccc23)ccc1F)N1CCN(C(=O)C2CC2)CC1 + CCN1C(C(=O)NC23CCC(C(=O)O)(CC2)CC3)C(c2cccc(Cl)c2F)C2(C(=O)Nc3cc(Cl)ccc32)C12CCCCC2
- viability, T/C [1]: 98.2%
- viability, T/C [2]: 96.3%
- viability, T/C (second compound 0.03 µM, first compound 0.316 µM): 107%
- viability, T/C (second compound 0.03 µM, first compound 1 µM): 82.3%
- viability, T/C (second compound 0.03 µM, first compound 3.16 µM): 48%
- viability, T/C (second compound 0.03 µM, first compound 10 µM): 33.6%
- viability, T/C [3]: 101%
- viability, T/C [4]: 110%
- viability, T/C (second compound 0.0949 µM, first compound 0.316 µM): 88.7%
- viability, T/C (second compound 0.0949 µM, first compound 1 µM): 84.8%
- viability, T/C (second compound 0.0949 µM, first compound 3.16 µM): 53.6%
- viability, T/C (second compound 0.0949 µM, first compound 10 µM): 29.9%
- viability, T/C [5]: 101%
- viability, T/C [6]: 103%
- viability, T/C (second compound 0.3 µM, first compound 0.316 µM): 98%
- viability, T/C (second compound 0.3 µM, first compound 1 µM): 76.8%
- viability, T/C (second compound 0.3 µM, first compound 3.16 µM): 46.1%
- viability, T/C (second compound 0.3 µM, first compound 10 µM): 31.2%
- viability, T/C [7]: 95.3%
- viability, T/C [8]: 105%
- viability, T/C (second compound 0.949 µM, first compound 0.316 µM): 82.9%
- viability, T/C (second compound 0.949 µM, first compound 1 µM): 76.2%
- viability, T/C (second compound 0.949 µM, first compound 3.16 µM): 47.3%
- viability, T/C (second compound 0.949 µM, first compound 10 µM): 29.8%
- viability, T/C [9]: 94%
- viability, T/C [10]: 90.1%
- viability, T/C (second compound 3 µM, first compound 0.316 µM): 95.9%
- viability, T/C (second compound 3 µM, first compound 1 µM): 74.8%
- viability, T/C (second compound 3 µM, first compound 3.16 µM): 51.5%
- viability, T/C (second compound 3 µM, first compound 10 µM): 28.3%

- IC50 (second compound 0.03 µM): 36.5 nM
- IC50 (second compound 0.0949 µM): 13.9 nM
- IC50 (second compound 0.3 µM): 9.66 nM
- IC50 (second compound 0.949 µM): 12.9 nM
- IC50 (second compound 3 µM): 10 nM
Compound: Cn1ncnc1[C@H]1c2n[nH]c(=O)c3cc(F)cc(c23)N[C@@H]1c1ccc(F)cc1 + CCN1C(C(=O)NC23CCC(C(=O)O)(CC2)CC3)C(c2cccc(Cl)c2F)C2(C(=O)Nc3cc(Cl)ccc32)C12CCCCC2
- viability, T/C (second compound 0.03 µM, first compound 0.000316 µM): 99.3%
- viability, T/C (second compound 0.03 µM, first compound 0.001 µM): 94%
- viability, T/C (second compound 0.03 µM, first compound 0.00316 µM): 87.5%
- viability, T/C (second compound 0.03 µM, first compound 0.01 µM): 66%
- viability, T/C [1]: 52.6%
- viability, T/C [2]: 42%
- viability, T/C (second compound 0.0949 µM, first compound 0.000316 µM): 91.8%
- viability, T/C (second compound 0.0949 µM, first compound 0.001 µM): 91.7%
- viability, T/C (second compound 0.0949 µM, first compound 0.00316 µM): 90%
- viability, T/C (second compound 0.0949 µM, first compound 0.01 µM): 52.3%
- viability, T/C [3]: 49.9%
- viability, T/C [4]: 38.1%
- viability, T/C (second compound 0.3 µM, first compound 0.000316 µM): 94.5%
- viability, T/C (second compound 0.3 µM, first compound 0.001 µM): 90.4%
- viability, T/C (second compound 0.3 µM, first compound 0.00316 µM): 79.2%
- viability, T/C (second compound 0.3 µM, first compound 0.01 µM): 48.5%
- viability, T/C [5]: 43.6%
- viability, T/C [6]: 39.9%
- viability, T/C (second compound 0.949 µM, first compound 0.000316 µM): 83.6%
- viability, T/C (second compound 0.949 µM, first compound 0.001 µM): 87.8%
- viability, T/C (second compound 0.949 µM, first compound 0.00316 µM): 75.8%
- viability, T/C (second compound 0.949 µM, first compound 0.01 µM): 55.1%
- viability, T/C [7]: 34.4%
- viability, T/C [8]: 34.8%
- viability, T/C (second compound 3 µM, first compound 0.000316 µM): 80%
- viability, T/C (second compound 3 µM, first compound 0.001 µM): 80.8%
- viability, T/C (second compound 3 µM, first compound 0.00316 µM): 76.3%
- viability, T/C (second compound 3 µM, first compound 0.01 µM): 49.6%
- viability, T/C [9]: 39.6%
- viability, T/C [10]: 34.5%

- IC50 (second compound 0.1 µM): > 1000 nM
- IC50 (second compound 0.316 µM): < 3.16 nM
- IC50 (second compound 1 µM): < 3.16 nM
- IC50 (second compound 3.16 µM): < 3.16 nM
- IC50 (second compound 10 µM): < 3.16 nM
Compound: CCN1CCN(Cc2ccc(Nc3ncc(F)c(-c4cc(F)c5nc(C)n(C(C)C)c5c4)n3)nc2)CC1 + Cc1c(S(C)(=O)=O)c(-c2cc(F)cc(N3CCN(c4ccc(NS(=O)(=O)c5ccc(NC(CCN6CCC(C(=O)OCCCP(=O)(O)O)CC6)CSc6ccccc6)c(S(=O)(=O)C(F)(F)F)c5)cc4)CC3)c2)c(-c2ccc(Cl)cc2)n1C(C)C
- viability, T/C (second compound 0.1 µM, first compound 0.00316 µM): 88.6%
- viability, T/C (second compound 0.1 µM, first compound 0.01 µM): 83.6%
- viability, T/C (second compound 0.1 µM, first compound 0.0316 µM): 82.2%
- viability, T/C (second compound 0.1 µM, first compound 0.1 µM): 69.5%
- viability, T/C (second compound 0.1 µM, first compound 0.316 µM): 66.6%
- viability, T/C (second compound 0.1 µM, first compound 1 µM): 58.1%
- viability, T/C (second compound 0.316 µM, first compound 0.00316 µM): 47.8%
- viability, T/C (second compound 0.316 µM, first compound 0.01 µM): 45.8%
- viability, T/C (second compound 0.316 µM, first compound 0.0316 µM): 44.7%
- viability, T/C (second compound 0.316 µM, first compound 0.1 µM): 28.9%
- viability, T/C (second compound 0.316 µM, first compound 0.316 µM): 24%
- viability, T/C (second compound 0.316 µM, first compound 1 µM): 21%
- viability, T/C (second compound 1 µM, first compound 0.00316 µM): 14.4%
- viability, T/C (second compound 1 µM, first compound 0.01 µM): 12%
- viability, T/C (second compound 1 µM, first compound 0.0316 µM): 10.6%
- viability, T/C (second compound 1 µM, first compound 0.1 µM): 7.35%
- viability, T/C (second compound 1 µM, first compound 0.316 µM): 6.95%
- viability, T/C (second compound 1 µM, first compound 1 µM): 2.98%
- viability, T/C (second compound 3.16 µM, first compound 0.00316 µM): 2.92%
- viability, T/C (second compound 3.16 µM, first compound 0.01 µM): 2.69%
- viability, T/C (second compound 3.16 µM, first compound 0.0316 µM): 2.77%
- viability, T/C (second compound 3.16 µM, first compound 0.1 µM): 2.85%
- viability, T/C (second compound 3.16 µM, first compound 0.316 µM): 2.68%
- viability, T/C (second compound 3.16 µM, first compound 1 µM): 3.02%
- viability, T/C (second compound 10 µM, first compound 0.00316 µM): 2.2%
- viability, T/C (second compound 10 µM, first compound 0.01 µM): 2.36%
- viability, T/C (second compound 10 µM, first compound 0.0316 µM): 2.21%
- viability, T/C (second compound 10 µM, first compound 0.1 µM): 1.72%
- viability, T/C (second compound 10 µM, first compound 0.316 µM): 2.26%
- viability, T/C (second compound 10 µM, first compound 1 µM): 2.79%
